Test system: C666-1 cells
Assay: C666-1 Cell Viability Assay (Resazurin cytotoxicity test)
Type: cell-based
Conditions: Homo sapiens, C6661, EB virus-positive C666-1 cells, 72 hours treatment, 100-0.78 micromole/L, read-out: Inhibitory Rate
Procedure, shortened: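 EBV-positive nasopharyngeal carcinoma C666-1 cells, 5×10^3 per well, were grown 24 h, then exposed to compound for 72 h at 37 °C (8-point two-fold dilutions, final 100–0.78 µM). Viability was read by resazurin reduction fluorescence after 3 h; EC50 came from the fitted inhibition curve.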

Structure (SMILES)	EC50
COc1ccc(OCc2ccc(OC3CN(c4cccc(C(=O)O)c4-n4cccc4)C3)cc2)cn1 [Example 4a, 3-(3-(4-(((6-methoxypyridin-3-yl)oxy)methyl)phenoxy)azetidin-1-yl)-2-(1H-pyrrol-1-yl) benzoic acid]	> 50 µM
COC(=O)c1cccc(N2CC(Oc3ccc(Cn4ccnc4)cc3)C2)c1-n1cccc1 [Example 56, methyl 3-(3-(4-((1H-imidazol-1-yl)methyl)phenoxy)azetidin-1-yl)-2-(1H-pyrrol-1-yl) benzoate]	10 to 50 µM
COC(=O)c1cccc(N2CC(Oc3ccc(NC(=O)Cc4cccnc4)cc3)C2)c1Cl [Example 55, methyl 2-chloro-3-(3-(4-(2-(pyridin-3-yl)acetamido)phenoxy)azetidin-1-yl) benzoate]	1 to 10 µM
COC(=O)c1cccc(N2CC(Oc3ccc(COc4cnccc4C)cc3)C2)c1-n1cccc1 [Example 2, methyl 3-(3-(4-((4-methylpyridin-3-yloxy)methyl)phenoxy)azetidin-1-yl)-2-(1H-pyrrol-1-yl) benzoate]	> 50 µM
COC(=O)c1cccc(N2CC(Oc3ccc(CC(=O)Nc4ccccc4)cc3)C2)c1-n1cccc1 [Example 35, methyl 3-(3-(4-(2-oxo-2-(phenylamino)ethyl)phenoxy)azetidin-1-yl)-2-(1H-pyrrol-1-yl) benzoate]	> 50 µM
COC(=O)c1cccc(N2CC(Oc3ccc(NC(=O)Nc4cccnc4)cc3)C2)c1 [Example 50, methyl 3-(3-(4-(3-(pyridin-3-yl)ureido)phenoxy)azetidin-1-yl) benzoate]	1 to 10 µM
O=C(Cc1cccnc1)Nc1ccc(OC2CN(c3cccc(C(=O)O)c3-c3ccccc3)C2)cc1 [Example 45a, 6-(3-(4-(2-(pyridin-3-yl)acetamido)phenoxy)azetidin-1-yl)-[1,1′-biphenyl]-2-carboxylic acid]	10 to 50 µM
COC(=O)c1cccc(N2CC(Oc3ccc(COc4cccnc4)c(C)c3)C2)c1-n1cccc1 [Example 15, methyl 3-(3-(3-methyl-4-((pyridin-3-yloxy)methyl)phenoxy)azetidin-1-yl)-2-(1H-pyrrol-1-yl) benzoate]	10 to 50 µM
COC(=O)c1cccc(N2CC(Oc3ccc(NC(=O)Nc4cccnc4)cc3)C2)c1-n1cccc1 [Example 34, methyl 3-(3-(4-(3-(pyridin-3-yl)ureido)phenoxy)azetidin-1-yl)-2-(1H-pyrrol-1-yl) benzoate]	< 1 µM
O=C(Nc1ccc(OC2CN(c3cccc(C(=O)NO)c3-n3cccc3)C2)cc1)Nc1cccc(C(F)(F)F)c1 [Example 10b, N-hydroxy-2-(1H-pyrrol-1-yl)-3-(3-(4-(3-(3-(trifluoromethyl)phenyl)ureido)phenoxy)azetidin-1-yl) benzamide]	1 to 10 µM
COC(=O)c1cccc(N2CC(Oc3ccc(NC(=O)Nc4cccnc4)cc3)C2)c1-c1cccc(Cl)c1 [Example 41, methyl 3′-chloro-6-(3-(4-(3-(pyridin-3-yl)ureido)phenoxy)azetidin-1-yl)-[1,1′-biphenyl]-2-carboxylate]	< 1 µM
O=C(O)c1cccc(N2CC(Oc3ccc(COc4ccncc4)cc3)C2)c1-n1cccc1 [Example 8a, 3-(3-(4-((pyridin-4-yloxy)methyl)phenoxy)azetidin-1-yl)-2-(1H-pyrrol-1-yl) benzoic acid]	> 50 µM
CCOC(=O)c1cccc(N2CC(Oc3ccc(COc4cccnc4)cc3)C2)c1-n1cccc1 [Example 1b, ethyl 3-(3-(4-((pyridin-3-yloxy)methyl)phenoxy)azetidin-1-yl)-2-(1H-pyrrol-1-yl) benzoate]	< 1 µM
O=C(O)c1cccc(N2CC(Oc3ccc(Oc4ccncc4)cc3)C2)c1-n1cccc1 [Example 26a, 3-(3-(4-(pyridin-4-yloxy)phenoxy)azetidin-1 - yl)-2-(1H-pyrrol-1-yl) benzoic acid]	10 to 50 µM
COC(=O)c1cccc(N2CC(Oc3ccc(NC(=O)Cc4cccnc4)cc3)C2)c1-c1cccc(Cl)c1 [Example 48, methyl 3′-chloro-6-(3-(4-(2-(pyridin-3-yl)acetamido)phenoxy)azetidin-1-yl)-[1,1′-biphenyl]-2-carboxylate]	< 1 µM
COC(=O)c1cccc(N2CC(Oc3ccc(NC(=O)Cc4cccnc4)cc3)C2)c1-n1cccc1 [Example 51, methyl 3-(3-(4-(2-(pyridin-3-yl)acetamido)phenoxy)azetidin-1-yl)-2-(1H-pyrrol-1-yl) benzoate]	< 1 µM
O=C(NO)c1cccc(N2CC(Oc3ccc(CNc4cccnc4)cc3)C2)c1-c1cccc(Cl)c1 [Example 38b, 3′-chloro-N-hydroxy-6-(3-(4-((pyridin-3-ylamino)methyl)phenoxy)azetidin-1-yl)-[1,1′-biphenyl]-2-carboxamide]	< 1 µM
O=C(Cc1cccnc1)Nc1ccc(OC2CN(c3cccc(C(=O)O)c3-n3cccc3)C2)cc1F [Example 52a, 3-(3-(3-fluoro-4-(2-(pyridin-3-yl)acetamido)phenoxy)azetidin-1-yl)-2-(1H-pyrrol-1-yl) benzoic acid]	< 1 µM

Structure (SMILES)	EC50
CNC(=O)c1cccc(N2CC(Oc3ccc(NC(=O)Nc4cccnc4)cc3)C2)c1-c1ccccc1 [Example 42c, N-methyl-6-(3-(4-(3-(pyridin-3-yl)ureido)phenoxy)azetidin-1-yl)-[1,1′-biphenyl]-2-carboxamide]	< 1 µM
O=C(Cc1ccc(OC2CN(c3cccc(C(=O)O)c3-c3ccc4cc[nH]c4c3)C2)cc1)Nc1cccnc1 [Example 44a, 2-(1H-indol-6-yl)-3-(3-(4-(2-oxo-2-(pyridin-3-ylamino)ethyl)phenoxy)azetidin-1-yl) benzoic acid]	1 to 10 µM
CNC(=O)c1cccc(N2CC(Oc3ccc(CC(=O)Nc4cccnc4)cc3)C2)c1-c1ccccc1 [Example 40c, N-methyl-6-(3-(4-(2-oxo-2-(pyridin-3-ylamino)ethyl)phenoxy)azetidin-1-yl)-[1,1′-biphenyl]-2-carboxamide]	1 to 10 µM
O=C(O)c1cccc(N2CC(Oc3ccc(Cn4ccnc4)cc3)C2)c1-n1cccc1 [Example 56a, 3-(3-(4-((1H-imidazol-1-yl)methyl)phenoxy)azetidin-1-yl)-2-(1H-pyrrol-1-yl) benzoic acid]	10 to 50 µM
O=C(O)c1cccc(N2CC(Oc3ccc(COc4cnccn4)cc3)C2)c1-n1cccc1 [Example 13a, 3-(3-(4-((pyrazin-2-yloxy)methyl)phenoxy)azetidin-1-yl)-2-(1H-pyrrol-1-yl) benzoic acid]	> 50 µM
O=C(Cc1ccc(OC2CN(c3cccc(C(=O)O)c3-n3cccc3)C2)cc1)Nc1ccccc1 [Example 35a, 3-(3-(4-(2-oxo-2-(phenylamino)ethyl)phenoxy)azetidin-1-yl)-2-(1H-pyrrol-1-yl) benzoic acid]	> 50 µM
Cc1ccncc1OCc1ccc(OC2CN(c3cccc(C(=O)O)c3-n3cccc3)C2)cc1 [Example 2a, 3-(3-(4-((4-methylpyridin-3-yloxy)methyl)phenoxy)azetidin-1-yl)-2-(1H-pyrrol-1-yl) benzoic acid]	> 50 µM
O=C(Nc1ccc(OC2CN(c3cccc(C(=O)NO)c3-n3cccc3)C2)cc1)Nc1cccnc1 [Example 34b, N-hydroxy-3-(3-(4-(3-(pyridin-3-yl)ureido)phenoxy)azetidin-1-yl)-2-(1H-pyrrol-1-yl) benzamide]	< 1 µM
O=C(O)c1cccc(N2CC(Oc3ccc(COc4cccnc4)cc3)C2)c1-c1ccccc1 [Example 17a, 6-(3-(4-((pyridin-3-yloxy)methyl)phenoxy)azetidin-1-yl)-[1,1′-biphenyl]-2-carboxylic acid]	1 to 10 µM
COC(=O)c1cccc(C#Cc2ccc(NC(=O)Nc3cccnc3)cc2)c1-c1ccc2cc[nH]c2c1 [Example 59, methyl 2-(1H-indol-6-yl)-3-((4-(3-(pyridin-3-yl)ureido)phenyl)ethynyl) benzoate]	< 1 µM
O=C(Nc1ccc(OC2CN(c3cccc(C(=O)NO)c3-c3cccc(Cl)c3)C2)cc1)Nc1cccnc1 [Example 41b, 3′-chloro-N-hydroxy-6-(3-(4-(3-(pyridin-3-yl)ureido)phenoxy)azetidin-1-yl)-[1,1′-biphenyl]-2-carboxamide]	< 1 µM
O=C(O)c1cccc(N2CC(Oc3ccc(COc4cncnc4)cc3)C2)c1-n1cccc1 [Example 14a, 3-(3-(4-((pyrimidin-5-yloxy)methyl)phenoxy)azetidin-1-yl)-2-(1H-pyrrol-1-yl) benzoic acid]	1 to 10 µM
Cc1cncc(OCc2ccc(OC3CN(c4cccc(C(=O)O)c4-n4cccc4)C3)cc2)c1 [Example 3a, 3-(3-(4-((5-methylpyridin-3-yloxy)methyl)phenoxy)azetidin-1-yl)-2-(1H-pyrrol-1-yl) benzoic acid]	> 50 µM
O=C(O)c1cccc(N2CC(Oc3ccc(OCc4cccnc4)cc3)C2)c1-n1cccc1 [Example 24a, 3-(3-(4-(pyridin-3-ylmethoxy)phenoxy)azetidin-1-yl)-2-(1H-pyrrol-1-yl) benzoic acid]	10 to 50 µM
O=C(Cc1cccnc1)Nc1ccc(OC2CN(c3cccc(C(=O)NO)c3-c3ccccc3)C2)cc1 [Example 45b, N-hydroxy-6-(3-(4-(2-(pyridine-3-yl)acetamido)phenoxy)azetidin-1-yl)-[1,1′-biphenyl]-2-carboxamide]	< 1 µM
COC(=O)c1cccc(N2CC(Oc3ccc(COc4cccnc4)c(Cl)c3)C2)c1-n1cccc1 [Example 19, methyl 3-(3-(3-chloro-4-((pyridin-3-yloxy)methyl)phenoxy)azetidin-1-yl)-2-(1H-pyrrol-1-yl) benzoate]	10 to 50 µM
Cc1cncc(NC(=O)Nc2ccc(OC3CN(c4cccc(C(=O)O)c4-n4cccc4)C3)cc2)c1 [Example 47a, 3-(3-(4-(3-(5-methylpyridin-3-yl)ureido)phenoxy)azetidin-1-yl)-2-(1H-pyrrol-1-yl) benzoic acid]	< 1 µM
COC(=O)c1cccc(N2CC(Oc3ccc(NC(=O)Cc4cccnc4)cc3)C2)c1-c1ccccc1 [Example 45, methyl 6-(3-(4-(2-(pyridin-3-yl)acetamido)phenoxy)azetidin-1-yl)-[1,1′-biphenyl]-2-carboxylate]	< 1 µM

— patent US20240308987A1, “SMALL MOLECULE INHIBITOR AGAINST NASOPHARYNGEAL CARCINOMA, PREPARATION METHOD AND APPLICATION THEREOF” (SHENZHEN BAY LABORATORY, priority 2021, published 2024)
